Data on 4 substances can be found in patent publication US20110144012A1, “SHORTENED GLUCAGON-LIKE PEPTIDE 1(SGLP-1) PREPARATION METHOD AND APPLICATION” (Dalian D.N. Bio-Engineering Co., Ltd., priority 2005, published 2011).

The subject of series [1] is NOD mice. Description: Insulinotropic hormone secretion effect of sGLP-1 (serum insulin, radio immunity kit). The class given is in vivo. Conditions: fasting NOD mice, 10 microgram injected. As for the experimental part: Experimental Material and Method: • NOD mice (Provided by Shanghai Laboratory Animal Center, Chinese Academy of Sciences) • 0.9% NaCl solution, pure sGLP-1 product (prepared in Example 1), pure GLP-1 product, and radio immunity insulin determination reagent kit (Made by Shanghai Institute of Biological Products (SIBP), Ministry of Health P.R.China.) NOD mice are divided into three groups. Use graduated capillary (wash the inner walls of the capillaries with 1 mg/mL heparin and dry the capillaries) to sample 50 microliters of blood from their orbital sinuses first, and inject the three groups of fasting mice with 10 microgram of sGLP-1, 10 microgram of GLP-1 and 200 microliters of normal saline, and regard this time as zero. Repeat the above operation at 5, 10, 20 and 30 minutes after that respectively. Place all the blood samples in a centrifuge tube with 50 microliters of normal saline in it, mix the blood samples and saline well, centrifuge the mixture at 3000 rpm to remove erythrocyte, and determinate insulin level of blood serum according to the method in this radio immunity reagent kit to check insulinotropic hormone secretion effect of sGLP-1. • The experiment result is shown in Table 2.

Series [2] deals with NOD mice. Description: Blood glucose-lowering effect on NOD mice (glucose injection). Conditions: for blood glucose level, 0 minutes after administration / blood glucose level, 5 minutes after administration / blood glucose level, 10 minutes after administration / blood glucose level, 20 minutes after administration: NOD mice fasted overnight, 200 microliters 40% glucose + 10 microgram peptide; for blood glucose-lowering effect (in words): NOD mice, glucose injection + 10 microgram peptide. The class given is in vivo. As for the experimental part:
Experimental Material and Method: • NOD mice (Provided by Shanghai Laboratory Animal Center, Chinese Academy of Sciences) fasting overnight. • 40% glucose, 0.9% NaCl solution, pure sGLP-1 product (Prepared in Example 1), pure GLP-1 product, reagent kit for blood glucose level determination (Made by Shanghai Institute of Biological Products (SIBP), Ministry of Health P.R.China.) NOD mice fast overnight, and are divided into three groups. Fasting Group 1 is injected with 200 microliters of 40% glucose and 10 microgram of sGLP-1; Fasting Group 2 is injected with 200 microliters of 40% glucose and 10 microgram of GLP-1; Group 3, a control group, is injected with only glucose. Immediately use graduated capillaries (treated with heparin before injection) to sample 20 microliters of blood from their orbital sinuses, add 300 microliters of normal saline to the blood and mix well, centrifuge it at 3000 rpm to remove erythrocyte, and use blood serum for fasting blood glucose level determination. […] The blood serum of the three groups is determined on blood glucose level according to the method in the reagent kit in order to check the blood glucose-lowering effect of each group.

Series [3] has as its system Healthy C57/BL mice. Description: C peptide secretion promotion effect of sGLP-1 (serum C peptide, radio immunity kit). Conditions: fasting healthy C57/BL mice, 10 microgram injected. Type of series: in vivo. As for the experimental part: Experiment Material and Method: • Healthy C57/BL mice (Provided by Shanghai Laboratory Animal Center, Chinese Academy of Sciences) • 0.9% NaCl solution, pure sGLP-1 product (Prepared in Example 1), pure GLP-1 product. • Radio immunity C-peptide determination reagent kit (Made by Shanghai Institute of Biological Products (SIBP), Ministry of Health P.R.China.) • Healthy C57/BL mice are divided into three groups. Use graduated capillary (wash the inner walls of the capillaries with 1 mg/mL heparin and dry the capillaries) to sample 50 microliters of blood from their orbital sinuses first, and inject the three groups of fasting mice with 10 microgram of sGLP-1, 10 microgram of GLP-1 and 200 microliters of normal saline, and regard this time as zero. Repeat the above operation at 5, 10, 20 and 30 minutes after that respectively. Place all the blood samples in a centrifuge tube with 50 microliters of normal saline in it, mix the blood samples and saline well, centrifuge the mixture at 3000 rpm to remove erythrocyte, and determinate C peptide level of blood serum according to the method in this radio immunity reagent kit to check C peptide secretion promotion effect of sGLP-1. • The experiment result is shown in Table 3.

The conditions of series [4]: in comparison with GLP-1; cited from earlier work.
The conditions of series [5]: in comparison with GLP-1; U.S. Pat. No. 5,424,286; cited from earlier work.
Series [6] relates to GK diabetes mellitus rats. Description: Blood glucose-lowering effect experiment in GK diabetes mellitus rats (fasting blood glucose level). Type of series: in vivo. Conditions: injected 0.1 mg/time, twice a day for two weeks, fasted overnight. As for the experimental part:
Material and Method • GK diabetes mellitus rats (Provided by Shanghai Laboratory Animal Center, Chinese Academy of Sciences)
sGLP-1 sequence is as follows:
• The above eight polypeptides with different sequence is mixed with 0.9% NaCl solution to prepare 1 mg/ml solution, which is standby. • The rats are grouped at random, and fast overnight. Use graduated capillaries (treated with heparin before injection) to sample 20 microliters of blood from their orbital sinuses, add 300 microliters of normal saline to the blood and mix well, centrifuge it at 3000 rpm to remove erythrocyte, and use blood serum for fasting blood glucose level determination. Inject each group of rats with different polypeptides, and use normal saline as Control N. All the rats are injected at 0.1 mg/time, twice a day for two weeks. They must fast overnight, and be sampled according to the above method for fasting blood glucose level determination. […] No. 1 sequence is full-length GLP-1 sequence, in which the second amino acid is changed from A to G, as Control P; No. 2 to No. 5 are the reconstructed sequences with different shortened length.

Turning to “His-Ala-Glu-Gly-Thr-Phe-Thr-Ser-Asp-Val-Ser-Ser-Tyr-Leu-Glu-Gly-Gln-Ala-Ala-Lys-Glu-Phe-Ile-Ala-Trp-Leu-Val-Lys-Gly-Arg [GLP-1]”, in series [1], the “insulin level, 0 minutes after administration” value is reported as 3.11 10^−6 international unit; the “insulin level, 5 minutes after administration” value is recorded as 9.76 10^−6 international unit; the “insulin level, 10 minutes after administration” value is on record as 10.63 10^−6 international unit; the “insulin level, 20 minutes after administration” value is reported as 11.23 10^−6 international unit. The “insulin level, 30 minutes after administration” value in series [1] is 6.27 10^−6 international unit. Moreover, in series [2], the “blood glucose level, 0 minutes after administration” value was 4.11 mmol/L; the “blood glucose level, 5 minutes after administration” value stood at 5.12 mmol/L; the “blood glucose level, 10 minutes after administration” value is listed as 4.87 mmol/L; the “blood glucose level, 20 minutes after administration” value is recorded as 4.03 mmol/L. For the same substance, the “blood glucose-lowering effect (in words)” value in series [2] is on record as “have blood glucose-lowering effect”. In series [3], the “c peptide level, 0 minutes after administration” value is 0.07 pmol/mL; the “c peptide level, 5 minutes after administration” value is recorded as 0.08 pmol/mL; the “c peptide level, 10 minutes after administration” value turned out to be 0.15 pmol/mL; the “c peptide level, 20 minutes after administration” value worked out at 0.11 pmol/mL. The “c peptide level, 30 minutes after administration” value in series [3] is on record as 0.09 pmol/mL.
As to Exendin 4, the “half time in human body (in words)” value in series [4] was “longer half time in human body”. In addition, in series [5], the “concentration required for insulin secretion action (in words)” value is on record as “lower”.
With “HGEGTFTSDVSSYLEGQAAKEFIAWL [No. 2, shortened glucagon-like peptide 1 of 26 amino acids, X1 is Gly]”, in series [6], the “blood glucose-lowering effect (fasting blood glucose level)” value is recorded as “blood glucose-lowering effect prominently exceeding No. 1”. Moreover, the “blood glucose-lowering effect (fasting blood glucose level)” value in series [6] (listed as sGLP-1) is “better blood glucose-lowering effect than GLP-1 and its reconstructed sequence”. Further, in series [1], the “insulin secretion promotion (in words)” value is reported as “can prominently promote insulin secretion”; the “insulin level, 0 minutes after administration” value was 2.88 10^−6 international unit; the “insulin level, 5 minutes after administration” value is listed as 10.56 10^−6 international unit; the “insulin level, 10 minutes after administration” value was 19.88 10^−6 international unit. Besides, in series [1], the “insulin level, 20 minutes after administration” value is reported as 24.67 10^−6 international unit and the “insulin level, 30 minutes after administration” value is 16.45 10^−6 international unit. The “insulin generation stimulation capacity compared with GLP-1 (in words)” value in series [1] (short-time versus medium and long-term) is “the same short-time insulin generation stimulation capacity as GLP-1 and the medium and long-term insulin generation stimulation capacity stronger than GLP-1”. Further, in series [2], the “blood glucose level, 0 minutes after administration” value is recorded as 4.08 mmol/L; the “blood glucose level, 5 minutes after administration” value is given as 4.34 mmol/L; the “blood glucose level, 10 minutes after administration” value stood at 4.28 mmol/L; the “blood glucose level, 20 minutes after administration” value is recorded as 3.98 mmol/L. Moreover, the “blood glucose-lowering effect (in words)” value in series [2] is on record as “have blood glucose-lowering effect”. In series [3], the “c peptide secretion promotion (in words)” value is “can prominently promote c peptide secretion”; the “c peptide secretion promotion capacity compared with GLP-1 (in words)” value is on record as “c peptide secretion promotion capacity exceeding GLP-1”; the “c peptide level, 0 minutes after administration” value stood at 0.07 pmol/mL; the “c peptide level, 5 minutes after administration” value turned out to be 0.08 pmol/mL. Further, in series [3], the “c peptide level, 10 minutes after administration” value came out at 0.20 pmol/mL; the “c peptide level, 20 minutes after administration” value was 0.16 pmol/mL; the “c peptide level, 30 minutes after administration” value came to 0.15 pmol/mL.
Consider “HSEGTFTSDVSSYLEGQAAKEFIAWL [No. 3, shortened glucagon-like peptide 1 of 26 amino acids, X1 is Ser]”, for which the “blood glucose-lowering effect (fasting blood glucose level)” value in series [6] is recorded as “blood glucose-lowering effect prominently exceeding No. 1”.
